Numbering of substitutions follows the chain as printed. pKi: −log10 of the molar value.
What was measured:
Format in all cases: biochemical
soluble guanylyl cyclase [1] = biological target: T1, soluble guanylyl cyclase (Homo sapiens, UniProt Q02108+Q02153); experiment: cGMP ELISA enzyme assay
T1 sequence (Q02153 1-619): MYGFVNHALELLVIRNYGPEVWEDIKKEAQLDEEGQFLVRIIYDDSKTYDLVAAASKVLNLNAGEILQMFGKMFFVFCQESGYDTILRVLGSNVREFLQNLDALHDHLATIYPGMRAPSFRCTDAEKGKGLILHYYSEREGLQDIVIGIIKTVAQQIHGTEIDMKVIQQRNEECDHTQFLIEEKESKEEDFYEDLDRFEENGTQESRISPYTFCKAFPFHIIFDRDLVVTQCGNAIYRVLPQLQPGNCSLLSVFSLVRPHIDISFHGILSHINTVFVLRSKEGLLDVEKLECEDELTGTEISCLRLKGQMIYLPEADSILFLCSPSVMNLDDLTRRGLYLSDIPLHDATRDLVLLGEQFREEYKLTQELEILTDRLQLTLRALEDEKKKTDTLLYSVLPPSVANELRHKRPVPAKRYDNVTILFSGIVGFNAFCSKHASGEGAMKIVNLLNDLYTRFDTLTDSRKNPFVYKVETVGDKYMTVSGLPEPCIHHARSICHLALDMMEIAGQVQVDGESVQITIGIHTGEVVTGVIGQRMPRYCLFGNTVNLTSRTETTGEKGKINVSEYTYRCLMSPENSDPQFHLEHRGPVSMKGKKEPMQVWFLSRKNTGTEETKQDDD
T1 sequence (Q02108 1-690): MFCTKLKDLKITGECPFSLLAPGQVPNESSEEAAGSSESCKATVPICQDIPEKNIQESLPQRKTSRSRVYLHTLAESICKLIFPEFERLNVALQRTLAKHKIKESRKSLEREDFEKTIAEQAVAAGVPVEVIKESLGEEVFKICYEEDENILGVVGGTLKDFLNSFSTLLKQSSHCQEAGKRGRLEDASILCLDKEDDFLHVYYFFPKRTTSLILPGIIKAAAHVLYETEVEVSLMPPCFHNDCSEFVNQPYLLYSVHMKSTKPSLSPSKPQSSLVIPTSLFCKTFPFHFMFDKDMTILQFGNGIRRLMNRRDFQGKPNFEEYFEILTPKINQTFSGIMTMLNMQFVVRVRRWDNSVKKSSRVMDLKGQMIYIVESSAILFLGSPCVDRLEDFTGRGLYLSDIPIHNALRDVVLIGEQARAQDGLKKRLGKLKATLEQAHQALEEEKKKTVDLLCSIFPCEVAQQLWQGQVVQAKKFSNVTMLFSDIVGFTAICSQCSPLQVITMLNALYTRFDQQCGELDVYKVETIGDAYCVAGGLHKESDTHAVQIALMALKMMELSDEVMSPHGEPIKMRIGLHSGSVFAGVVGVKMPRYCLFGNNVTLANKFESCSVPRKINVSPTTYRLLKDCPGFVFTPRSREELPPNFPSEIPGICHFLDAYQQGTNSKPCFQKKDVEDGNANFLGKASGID

soluble guanylyl cyclase [2] = biological target: T2, soluble guanylyl cyclase (Bos taurus, UniProt P16068+P19687); experiment: cGMP ELISA enzyme assay
T2 sequence (P16068 1-619): T1 sequence (Q02153 1-619) with E126D, L290S, S574T, K615E, D618E, D619N
T2 sequence (P19687 1-691): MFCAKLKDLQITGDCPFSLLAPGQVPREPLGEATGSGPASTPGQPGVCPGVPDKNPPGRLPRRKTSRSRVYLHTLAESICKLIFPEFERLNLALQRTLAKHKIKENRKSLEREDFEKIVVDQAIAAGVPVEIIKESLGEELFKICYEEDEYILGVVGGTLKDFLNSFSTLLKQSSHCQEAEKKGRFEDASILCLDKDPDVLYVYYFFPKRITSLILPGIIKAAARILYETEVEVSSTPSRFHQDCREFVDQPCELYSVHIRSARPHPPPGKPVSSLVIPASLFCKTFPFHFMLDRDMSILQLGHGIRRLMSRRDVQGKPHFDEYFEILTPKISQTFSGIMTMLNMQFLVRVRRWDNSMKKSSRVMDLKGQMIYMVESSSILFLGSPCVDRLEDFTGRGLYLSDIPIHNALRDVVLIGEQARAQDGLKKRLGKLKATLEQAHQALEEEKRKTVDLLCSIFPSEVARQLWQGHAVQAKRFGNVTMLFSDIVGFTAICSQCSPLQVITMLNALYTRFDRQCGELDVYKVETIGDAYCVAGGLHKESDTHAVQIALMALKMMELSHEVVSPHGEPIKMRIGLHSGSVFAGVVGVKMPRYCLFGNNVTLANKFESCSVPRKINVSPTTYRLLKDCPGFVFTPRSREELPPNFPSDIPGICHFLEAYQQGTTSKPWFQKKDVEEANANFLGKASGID

soluble guanylyl cyclase [3] = biological target: T2, soluble guanylyl cyclase; experiment: cGMP production by ELISA at varied GTP

Compound	cGMP ELISA enzyme assay (soluble guanylyl cyclase [1])	pKi (soluble guanylyl cyclase [2])	cGMP production by ELISA at varied GTP; Lineweaver-Burk plot (soluble guanylyl cyclase [3])
Nc1nc(=O)c2ncn([C@H]3C=C[C@@H](COP(=O)(O)OP(=O)(O)OP(=O)(O)O)C3)c2[nH]1 [carbovir triphosphate]	able to inhibit the activity of purified soluble guanylyl cyclase (both purified native bovine enzyme and recombinant human enzyme)	4.26	
Nc1nc2c(ncn2[C@@H]2O[C@H](COP(=O)(O)OP(=O)(O)OP(=O)(O)O)[C@@H](O)[C@H]2O)c(=O)[nH]1 [guanosine triphosphate]			we measured the amount of inhibition while varying the concentrations of GTP and carbovir triphosphate
